SMILES strings stand for the structures. Structures can show the parent of a compound that is named as a salt. Where two headings read alike, the source gives them in different places. Some results are limits rather than exact numbers.

We go through three compounds from patent publication US20170071903A1, “USE OF ERIBULIN AND MTOR INHIBITORS AS COMBINATION THERAPY FOR THE TREATMENT OF CANCER” (Eisai R&D Management Co., Ltd., priority 2014, published 2017).

Data set [1] relates to MX-1 human mammary tumor xenografts. Kind of data set: Growth of subcutaneously-implanted MX-1 human mammary tumor xenografts in mice.
Source text: A total of 120 tumor bearing mice were divided into twelve groups of 10 mice. […] All treatments were initiated 10 days after the implantation of tumor xenografts.
Six-weeks-old female, athymic NCr-nu/nu mice were purchased from Charles River Laboratories (Wilmington, Mass.) and acclimated in the laboratories for 10 days prior to experimentation. The animals were housed in microisolator cages, five per cage with a 12-hour light/dark cycle. The animals received filtered Birmingham municipal water and sterilized Teklad Global 16% protein rodent diet (2016S, Harlan Laboratories, Inc.) ad libitum. No consumable enrichment was provided. Enrich-n'Nest paper rolls (the Andersons Lab Bedding Products, Maumee, Ohio) were provided in each cage as manipulanda. Cages were changed twice weekly. The animals were observed daily and clinical signs were noted.
Each mouse was implanted SC near the right flank with a 30-40 mg fragment of MX-1 human mammary tumor from an in vivo passage using a 13-gauge needle. The day of tumor fragments implantation was designated as Day 0. Individual tumors of 120 animals grew to 100-245 mg in weight (100-245 mm^3 in size) on the day of treatment initiation, Day 10 after tumor fragments implantation. Those animals selected with tumors in the proper size range were assigned to twelve treatment groups so that the mean and median tumor weights in all groups on the first day of treatment were as close to each other as possible (mean tumor weights ranged from 160 to 168 mg, median tumor weights were 153 or 162 mg).
The solution was allowed to stand for 2-3 minutes to make sure it was fully in solution. […] On each day of treatment, an aliquot was thawed at room temperature and diluted with saline to yield a concentration of 0.06 mg/mL in 2.5% DMSO/97.5% saline. Lower concentrations of 0.04 and 0.02 mg/mL were achieved by dilution of a portion of the 0.06 mg/mL solution with 2.5% DMSO/97.5% saline. Bottles with dosing solutions were stored at 4° C. between formulation and administration.
0.5% MC/0.2% T80 in WFI was formulated and the solution was stored at 4° C. […] A portion of the 4 mg/mL cloudy solution was diluted with 0.5% MC/0.2% T80 in WFI to 2 mg/mL. Bottles with dosing solutions were stored at 4° C. between formulation and administration.
The experiment consisted of a vehicles-treated control group and eleven drug-treated groups of 10 mice per group for a total of 120 mice on the first day of treatment. All treatments were initiated on Day 10. […] On the days when both compounds were administered, E7389 was administered to all combination groups first [−(0)]
Animals were observed once daily for mortality and morbidity. The SC tumors were measured and the animals were weighed twice weekly starting with the first day of treatment, Day 10 after tumor fragment implantation.
On data set [2], the source says: No consumable enrichment was provided. […] Cages were changed twice weekly.
All treatments were initiated on Day 10.

Data set [3] deals with twenty-five cell line panel. Briefly: Anti-proliferation assay (ATPLite, growth inhibition), single agent dose response. It is filed as cell-based. The settings on record: median across cell lines reaching >50% inhibition; 72 h; three-fold, ten-point dose titration. The protocol:
Cells are thawed from a liquid nitrogen preserved state. […] The calculation for synergy score is provided below. […] This formula is derived from the Growth Inhibition calculation used in the National Cancer Institute's NCI-60 high throughput screen. All single agent and combination data analysis are performed in growth inhibition. Eribulin had varying activity across a twenty-five cell line panel. Single agent activity was assessed using a three-fold, ten-point dose titration. Twenty-three cell lines were evaluated in 1536-well plate format. Two additional cell lines were evaluated in 384-well plate format.

[4] abbreviates: E7389 0.2 mg/kg/injection IV Q4Dx4 (Group 4).
The mark [5] stands for this setting: E7389 0.4 mg/kg/injection IV Q4Dx4 (Group 3).
Where [6] appears, read: everolimus 20 mg/kg/dose PO Q1Dx16 (Group 6).
Where [7] appears, read: everolimus 40 mg/kg/dose PO Q1Dx16 (Group 5).

`C=C1C[C@@H]2CC[C@@]34C[C@H]5O[C@H]6[C@@H](O3)[C@H]3O[C@H](CC[C@@H]3O[C@H]6[C@H]5O4)CC(=O)C[C@@H]3[C@@H](OC)[C@@H](C[C@H](O)CN)O[C@H]3C[C@H]3O[C@@H](CC[C@@H]1O2)C[C@@H](C)C3=C` [E7389, II, 15:18,21:24,28-triepoxy-7,9-ethano-12,15-methano-9H,15H-furo[3,2-i]furo[2′,3′:5,6]pyrano[4,3-b][1,4]dioxacyclopentacosin-5(4H)-one, 2-[(2S)-3-amino-2-hydroxypropyl]hexacosahydro-3-methoxy-26-methyl-20,27-bis(methylene)-, (2R,3R,3aS,7R,8aS,9S,10aR,11S,12R,13aR,13bS,15S,18S,21S,24S,26R,28R,29aS)-methanesulfonate (salt)]: the “T/C value on Day 34 (median tumor weight)” value in data set [1] (setting [4]) stood at 51%; in data set [1] (setting [5]), 13%; in data set [1] (E7389 0.6 mg/kg/injection IV Q4Dx4 (Group 2)), 0%. Further, the “median tumor growth delay (T-C)” value in data set [1] (setting [4]) is over 6.3 days; in data set [1] (setting [5]), 17.7 days; in data set [1] (E7389 0.6 mg/kg/injection IV Q4Dx4 (Group 2), time to four tumor mass doublings) it was over 33.8 days. For the same compound, in data set [1] (E7389 0.6 mg/kg/injection (Group 2)), the “number of tumor-free survivors on day of study termination (Day 62)” value is “five”. Besides, in data set [1] (E7389 0.6 mg/kg/injection (Group 2), out of ten animals), the “number of complete tumor regressions” value is recorded as “six”. Besides, the “inhibition of the growth of the MX-1 mammary tumor xenografts” value in data set [1] (E7389 0.6, 0.4 and 0.2 mg/kg/injection IV) was “very effective”. The tolerability / deaths result in data set [2] (E7389 0.6, 0.4 and 0.2 mg/kg/injection IV Q4Dx4 (Groups 2-4)) was “tolerated without treatment-related deaths”. Further, the “maximum tolerated dose (MTD)” value in data set [2] (E7389 IV Q4Dx4, doses up to 0.6 mg/kg/injection) is reported as “not reached”. Further, the “dryness of the skin” value in data set [2] (mouse, in vivo) is “not noted”. Besides, in data set [2] (mouse, in vivo, iv, 0.2 mg/kg), the “mean body weight loss” value is reported as “did not result in mean body weight loss”. The “maximum mean body weight loss” value in data set [2] (mouse, in vivo, iv, 0.4 mg/kg) is reported as 1%; in data set [2] (mouse, in vivo, iv, 0.6 mg/kg) it was 1%.
In the case of `C=C1C[C@@H]2CC[C@@]34C[C@H]5O[C@H]6[C@@H](O3)[C@H]3O[C@H](CC[C@@H]3O[C@H]6[C@H]5O4)CC(=O)C[C@@H]3[C@@H](OC)[C@@H](C[C@H](O)CN)O[C@H]3C[C@H]3O[C@@H](CC[C@@H]1O2)C[C@@H](C)C3=C` [Eribulin], the GI50 in data set [3] came out at 0.51 nM.
Turning to `CO[C@H]1C[C@@H]2CC[C@@H](C)[C@@](O)(O2)C(=O)C(=O)N2CCCC[C@H]2C(=O)O[C@H]([C@H](C)C[C@@H]2CC[C@@H](OCCO)[C@H](OC)C2)CC(=O)[C@H](C)/C=C(\C)[C@@H](O)[C@@H](OC)C(=O)[C@H](C)C[C@H](C)/C=C/C=C/C=C/1C` [everolimus], the “T/C value on Day 34 (median tumor weight)” value is listed as 74% in data set [1] (setting [6]) and 46% in data set [1] (setting [7]). Besides, the “median tumor growth delay (T-C)” value in data set [1] (setting [6]) came out at 4.0 days; in data set [1] (setting [7]), 6.1 days. Besides, the “inhibition of the growth of the MX-1 mammary tumor xenografts” value in data set [1] (everolimus 40 and 20 mg/kg/dose PO) is recorded as “minimally effective”. Further, the “maximum tolerated dose (MTD)” value in data set [2] (mouse, in vivo, po) is listed as “not reached”.
